Reference: ChEMBL document CHEMBL6178013, “Ferroptosis of Cancer Cells via Tubulin Degradation and Mitochondrial Dysfunction: A Novel Mechanism of Anticancer Effect for Small-Molecule Anion Transporters” (J Med Chem, 2025)
The source made the active and inactive calls. No cut-off for these calls is given here.

Assays:
[1] = test system: HeLa; assay: Induction of mitochondrial membrane permeability in human HeLa cells assessed as green fluorescence at 0.5 uM incubated for 24 hrs by JC-1 staining based analysis (reference value: 1.5 %); assay type: functional
[2] = test system: HeLa; assay: Induction of lipid peroxidation in human HeLa cells assessed as increase in green fluorescence at 0.1 to 1 uM incubated for 24 hrs by C11-BODIPY-581/591 probe based analysis; assay type: functional, cell-based; conditions: dose 0.1-1 µM
[3] = test system: HeLa; assay: Induction of lipid peroxidation in human HeLa cells assessed as increase in ROS generation incubated for 24 hrs by flow cytometry; assay type: functional, cell-based; conditions: dose 0.1-1 µM
[4] = test system: HeLa; assay: Induction of lipid peroxidation in human HeLa cells assessed as increase in Fe2+ level incubated for 12 hrs by absorbance based assay; assay type: functional, cell-based; conditions: dose 0.1-1 µM
[5] = test system: HeLa; assay: Induction of lipid peroxidation in human HeLa cells by flow cytometry; assay type: functional, cell-based; conditions: dose 0.1-1 µM
[6] = test system: HeLa; assay: Induction of beta III-tubulin degradation in human HeLa cells up to 10 uM preincubated with MG132 followed by compound addition measured after 24 hrs by immunoblotting analysis; assay type: cell-based
[7] = test system: Chloride; assay: Binding affinity to chloride anions assessed as chloride efflux in egg-yolk L-alpha-phosphatidylcholine liposome model harboring intravesicular NaCl/extravesicular NaHCO3
[8] = test system: Chloride; assay: Binding affinity to chloride anions in human HeLa cells assessed as increase in chloride influx at 1 uM measured after 15 mins by flow cytometry; assay type: cell-based
[9] = test system: HeLa; assay: Antitumor activity against human HeLa cells xenografted in male Balb/C nude mouse assessed as average tumor size at 20 mg/kg, ip administered on every 2 days measured after 18 days (reference value: 1995.1 mm3); assay type: functional; conditions: time 18 day
[10] = AUC (0 to infinity) in male CD-1 mouse at 1 mg/kg, ip measured for 0.083 to 48 hrs by HPLC/MS/MS analysis; assay type: ADME, organism-based; conditions: in vivo, time 0.083-48 hrs
[11] = test system: HeLa; assay: Cytotoxicity against human HeLa cells assessed as decrease in cell viability cultured in chloride-containing extracellular medium at 0.05 to 5 uM incubated for 12 hrs; assay type: functional, cell-based; conditions: dose 0.05-5 µM
[12] = test system: HeLa; assay: Antitumor activity against human HeLa cells xenografted in male Balb/C nude mouse assessed as decrease in beta III-tubulin level at 10 to 20 mg/kg, ip administered on every 2 days measured after 18 days by immunoblotting analysis; assay type: functional, organism-based; conditions: dose 10-20 mg/kg, time 18.0 day
[13] = test system: MCF7; assay: Cytotoxicity against human MCF7 cells incubated for 48 hrs by MTT assay; assay type: functional, cell-based; conditions: MCF7, 48 h
[14] = test system: Chloride; assay: Binding affinity to chloride anions in human HeLa cells assessed as increase in chloride influx at 1 uM measured after 15 mins by inverted fluorescence microscopy; assay type: cell-based
[15] = Cmax in male CD-1 mouse at 1 mg/kg, ip measured for 0.083 to 48 hrs by HPLC/MS/MS analysis; assay type: ADME, organism-based; conditions: in vivo, time 0.083-48 hrs
[16] = test system: HeLa; assay: Induction of lipid peroxidation in human HeLa cells assessed as increase in MDA level incubated for 12 hrs by absorbance based assay; assay type: functional, cell-based; conditions: dose 0.1-1 µM
[17] = Half life in male CD-1 mouse at 1 mg/kg, ip measured for 0.083 to 48 hrs by HPLC/MS/MS analysis; assay type: ADME, organism-based; conditions: in vivo, time 0.083-48 hrs
[18] = test system: HeLa; assay: Antitumor activity against human HeLa cells xenografted in male Balb/C nude mouse assessed as cell death at 10 to 20 mg/kg, ip administered on every 2 days measured after 18 days by TUNEL immunofluorescence analysis; assay type: functional, organism-based; conditions: dose 10-20 mg/kg, time 18.0 day
[19] = test system: Chloride; assay: Binding affinity to chloride anions in human HeLa cells assessed as decrease in orange fluorescence in cytoplasm at 5 uM incubated for 6 hrs by AO staining based analysis relative to control; assay type: cell-based; set-up: scale not given: the % may be the effect or the level left
[20] = test system: Chloride; assay: Binding affinity to chloride anions in human HeLa cells assessed as chloride influx up to 5 uM incubated for 2 hrs by MQAE staining based analysis; assay type: cell-based
[21] = test system: HeLa; assay: Induction of mitochondrial membrane permeability in human HeLa cells assessed as red fluorescence at 0.1 uM incubated for 24 hrs by JC-1 staining based analysis (reference value: 98.5 %); assay type: functional
[22] = test system: HeLa; assay: Antitumor activity against human HeLa cells xenografted in male Balb/C nude mouse assessed as reduction in tumor weight at 10 mg/kg, ip administered on every 2 days measured after 18 days relative to control; assay type: functional; set-up: scale not given: the % may be the effect or the level left; conditions: time 18 day
[23] = test system: HeLa; assay: Antitumor activity against human HeLa cells xenografted in male Balb/C nude mouse assessed as reduction in tumor weight at 20 mg/kg, ip administered on every 2 days measured after 18 days relative to control; assay type: functional; set-up: scale not given: the % may be the effect or the level left; conditions: time 18 day
[24] = test system: Chloride; assay: Binding affinity to chloride anions assessed as chloride efflux in egg-yolk L-alpha-phosphatidylcholine liposome model harboring intravesicular CsCl/extravesicular NaNO3
[25] = test system: HeLa; assay: Induction of ferroptosis in human HeLa cells assessed as increase in caspase-3 activation at 0.1 to 1 uM incubated for 24 hrs by immunoblotting analysis; assay type: functional, cell-based; conditions: dose 0.1-1 µM
[26] = test system: Chloride; assay: Binding affinity to chloride anions assessed as chloride efflux in egg-yolk L-alpha-phosphatidylcholine liposome model harboring intravesicular KCl/extravesicular NaNO3
[27] = Toxicity in male Balb/C nude mouse xenografted with human HeLa cells assessed as body weight change at 20 mg/kg, ip administered on every 2 days measured after 18 days; assay type: organism-based; conditions: in vivo, 432 h, time 18 day
[28] = target: Tubulin (Homo sapiens) (UniProt P68371+Q9H4B7+P0DPH7+P68366+Q13509+Q71U36+P04350+Q3ZCM7+P07437+P68363+Q9BQE3+Q6PEY2+Q13885+Q9BVA1+Q9BUF5); assay: Induction of tubulin degradation in human HeLa cells assessed as disruption of tubulin network at 10 uM incubated for 16 hrs by immunofluorescence based analysis; assay type: cell-based
[29] = test system: HeLa; assay: Cytotoxicity against human HeLa cells incubated for 48 hrs by MTT assay; assay type: functional, cell-based
[30] = AUC (0 to t) in male CD-1 mouse at 1 mg/kg, iv measured for 0.083 to 48 hrs by HPLC/MS/MS analysis; assay type: ADME, organism-based; conditions: in vivo, time 0.083-48 hrs
[31] = test system: HeLa; assay: Cytotoxicity against human HeLa cells assessed as decrease in cell viability at 0.01 to 10 uM pretreated with Nec-1 followed by compound addition by MTT assay; assay type: functional, cell-based; conditions: dose 0.01-10 µM
[32] = test system: HeLa; assay: Induction of ferroptosis in human HeLa cells assessed as increase in Bad level at 0.1 to 1 uM incubated for 24 hrs by immunoblotting analysis; assay type: functional, cell-based; conditions: dose 0.1-1 µM
[33] = test system: Chloride; assay: Binding affinity to chloride anions assessed as binding constant at 1:1 stoichiometry of compound and tetrabutylammonium chloride salt by 1H NMR spectroscopy
[34] = Cmax in male CD-1 mouse at 1 mg/kg, iv measured for 0.083 to 48 hrs by HPLC/MS/MS analysis; assay type: ADME, organism-based; conditions: in vivo, time 0.083-48 hrs
[35] = test system: HeLa; assay: Cytotoxicity against human HeLa cells assessed as decrease in cell viability cultured in chloride-free extracellular medium at 0.05 to 5 uM incubated for 12 hrs; assay type: functional, cell-based; conditions: dose 0.05-5 µM
[36] = test system: HeLa; assay: Induction of mitochondrial membrane permeability in human HeLa cells at 0.625 to 5 uM incubated for 24 hrs by JC-1 staining based analysis; assay type: functional, cell-based; conditions: dose 0.625-5 µM
[37] = test system: HeLa; assay: Induction of ferroptosis in human HeLa cells assessed as decrease in Bcl-2 level at 0.1 to 1 uM incubated for 24 hrs by immunoblotting analysis; assay type: functional, cell-based; conditions: dose 0.1-1 µM

With `Fc1cc(-c2nc3c(C(F)(F)F)cc(C(F)(F)F)cc3[nH]2)cc(-c2nc3c(C(F)(F)F)cc(C(F)(F)F)cc3[nH]2)c1` the Activity [1] was 44.9%, the Activity [2] was “Active” and the Activity [3] was “Dose-dependent-effect”. The Activity [4] was “Dose-dependent-effect”, the Activity [5] was “Dose-dependent-effect” and the Activity [6] was “inactive”. The Activity [7] was “Active”, the Activity [8] was “inactive” and the Activity [9] was 626.1 mm3. For the same molecule, the AUC(0-inf) [10] was 4610 ng·h/mL, the Activity [11] was “Active” and the Activity [12] was “Active”. For the same molecule, the IC50 [13] was 770 nM, the Activity [14] was “inactive” and the Cmax [15] was 270 ng/mL. For the same molecule, the Activity [16] was “Dose-dependent-effect”, the half-life [17] was 19.9 h and the Activity [18] was “Active”. The Activity [19] was 100%, the Activity [20] was “Active” and the Activity [21] was 90.5%. For the same molecule, the Activity [22] was 57%, the Activity [23] was 69% and the Activity [24] was “Active”. For the same molecule, the Activity [25] was “Active”, the Activity [26] was “Active” and the Activity [27] was “Non-toxic”. For the same molecule, the Activity [28] was “Active”, the IC50 [29] was 120 nM and the AUC(0-t) [30] was 17500 ng·h/mL. The Activity [31] was “Active”, the Activity [32] was “Active” and the K [33] was 5250 M⁻¹. For the same molecule, the Cmax [34] was 22700 ng/mL, the Activity [35] was “inactive” and the Activity [36] was “Active”. For the same molecule, the Activity [37] was “Active”.
